Structures can show the parent of a compound that is named as a salt.
Columns and labels:
[1] = molecular target: T1, recombinant guanylate cyclase reporter cell line (Rattus norvegicus, UniProt P19686+P20595); experiment: Effect on a recombinant guanylate cyclase reporter cell line (B-2); assay type: cell-based; conditions: MEC = minimum effective concentration, in some cases mean values for individual determinations
T1 construct: expressed in transfected cells
T1 sequence (P19686 1-690): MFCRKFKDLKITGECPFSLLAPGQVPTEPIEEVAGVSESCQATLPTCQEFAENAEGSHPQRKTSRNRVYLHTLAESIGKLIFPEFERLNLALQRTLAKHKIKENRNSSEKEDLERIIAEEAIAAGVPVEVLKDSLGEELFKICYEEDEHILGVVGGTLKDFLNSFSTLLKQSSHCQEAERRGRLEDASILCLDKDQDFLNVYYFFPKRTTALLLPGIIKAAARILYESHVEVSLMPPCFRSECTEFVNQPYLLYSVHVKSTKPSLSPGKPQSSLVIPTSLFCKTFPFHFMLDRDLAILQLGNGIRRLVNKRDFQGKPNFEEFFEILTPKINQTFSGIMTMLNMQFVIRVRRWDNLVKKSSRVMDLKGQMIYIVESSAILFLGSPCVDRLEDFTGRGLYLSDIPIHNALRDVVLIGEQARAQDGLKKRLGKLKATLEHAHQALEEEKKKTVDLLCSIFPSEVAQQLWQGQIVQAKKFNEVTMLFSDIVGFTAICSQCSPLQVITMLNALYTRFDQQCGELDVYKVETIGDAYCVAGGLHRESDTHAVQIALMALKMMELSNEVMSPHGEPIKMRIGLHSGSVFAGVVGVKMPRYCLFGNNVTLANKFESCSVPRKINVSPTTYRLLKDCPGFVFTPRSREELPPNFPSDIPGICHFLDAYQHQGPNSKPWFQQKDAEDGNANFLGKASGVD
T1 sequence (P20595 1-619): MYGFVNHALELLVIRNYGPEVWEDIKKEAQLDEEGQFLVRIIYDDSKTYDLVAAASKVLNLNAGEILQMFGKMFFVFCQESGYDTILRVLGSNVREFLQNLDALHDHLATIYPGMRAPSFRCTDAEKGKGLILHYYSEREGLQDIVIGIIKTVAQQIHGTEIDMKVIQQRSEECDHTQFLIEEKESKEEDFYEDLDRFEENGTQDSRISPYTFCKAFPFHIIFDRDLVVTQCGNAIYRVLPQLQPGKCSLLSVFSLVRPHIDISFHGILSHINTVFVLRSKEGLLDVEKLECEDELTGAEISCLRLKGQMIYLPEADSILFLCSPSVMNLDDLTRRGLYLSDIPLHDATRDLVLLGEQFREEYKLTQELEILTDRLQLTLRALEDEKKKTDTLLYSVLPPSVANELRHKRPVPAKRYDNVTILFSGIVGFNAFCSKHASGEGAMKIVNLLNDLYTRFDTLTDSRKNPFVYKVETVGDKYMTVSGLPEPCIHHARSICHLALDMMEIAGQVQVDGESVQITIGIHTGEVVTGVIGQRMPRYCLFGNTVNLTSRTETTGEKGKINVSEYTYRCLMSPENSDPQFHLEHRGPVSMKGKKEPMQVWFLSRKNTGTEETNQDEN
Procedure: B-2. Effect on a Recombinant Guanylate Cyclase Reporter Cell Line
The cellular activity of the compounds according to the invention is determined using a recombinant guanylate cyclase reporter cell line, as described in F. Wunder et al., Anal. Biochem. 339, 104-112 (2005).
Representative MEC values (MEC=minimum effective concentration) for the compounds of the invention are shown in Table 1 below (in some cases as mean values for individual determinations): […]

[2] = molecular target: T2, human phosphodiesterase 5 (PDE 5) (Homo sapiens, UniProt O76074); experiment: Inhibition of human phosphodiesterase 5 (PDE 5) (B-3); assay type: biochemical; conditions: PDE 5 preparation from human platelets; [8-3H] cGMP substrate, SPA; in some cases means of individual determinations
T2 construct: PDE 5 preparations are obtained from human platelets by disruption; from tissue; host or cells: human platelets (Mono Q ion exchange fractions with PDE 5 activity)
Procedure: B-3. Inhibition of Human Phosphodiesterase 5 (PDE 5)
PDE 5 preparations are obtained from human platelets by disruption (Microfluidizer®, 800 bar, 3 passes), followed by centrifugation (75 000 g, 60 min, 4° C.) and ion exchange chromatography of the supernatant on a Mono Q 10/10 column (linear sodium chloride gradient, elution with a 0.2-0.3M solution of sodium chloride in buffer (20 mM Hepes pH 7.2, 2 mM magnesium chloride). Fractions having PDE 5 activity are combined (PDE 5 preparation) and stored at −80° C.
To determine their in vitro action on human PDE 5, the test substances are dissolved in 100% DMSO and serially diluted. Typically, dilution series (1:3) from 200 μM to 0.091 μM are prepared (resulting final concentrations in the test: 4 μM to 0.0018 μM). In each case 2 μl of the diluted substance solutions are placed into the wells of microtitre plates (Isoplate-96/200 W; Perkin Elmer). Subsequently, 50 μl of a dilution of the above-described PDE 5 preparation are added. The dilution of the PDE 5 preparation is chosen such that during the later incubation less than 70% of the substrate are converted (typical dilution: 1:100; dilution buffer: 50 mM tris/hydrochloric acid pH 7.5, 8.3 mM magnesium chloride, 1.7 mM EDTA, 0.2% BSA). The substrate, [8-^3H] cyclic guanosine-3′,5′-monophosphate (1 μCi/μl; Perkin Elmer), is diluted 1:2000 with assay buffer (50 mM tris/hydrochloric acid pH 7.5, 8.3 mM magnesium chloride, 1.7 mM EDTA) to a concentration of 0.0005 μCi/μl. By addition of 50 μl (0.025 μCi) of the diluted substrate, the enzyme reaction is finally started. The test mixtures are incubated at room temperature for 60 min and the reaction is stopped by adding 25 μl of a suspension of 18 mg/ml yttrium scintillation proximity beads in water (phosphodiesterase beads for SPA assays, RPNQ 0150, Perkin Elmer). The microtitre plates are sealed with a film and left to stand at room temperature for 60 min. Subsequently, the plates are analysed for 30 s per well in a Microbeta scintillation counter (Perkin Elmer). IC50 values are determined using the graphic plot of the substance concentration against percentage PDE 5 inhibition.

MEC [1] [µM] | IC50 [2] [nM] | Structure (SMILES)
0.3 | 0.3 | Cc1nc2c(OCc3c(F)cccc3F)cccn2c1-c1nc2c(c(NC3CCC(C)(O)CC3)n1)C(C)(C)C(=O)N2 (single isomer, unassigned; diastereomer 1) [Example 28, 2-{8-[(2,6-difluorobenzyl)oxy]-2-methylimidazo[1,2-a]pyridin-3-yl)-4-[(4-hydroxy-4-methylcyclohexyl)amino]-5,5-dimethyl-5,7-dihydro-6H-pyrrolo[2,3-d]pyrimidin-6-one formate (Diastereomer 1)]
0.3 | 0.9 | Cc1nc2c(OCc3c(F)cccc3F)cccn2c1-c1nc2c(c(NC3CCC(C)(O)CC3)n1)C(C)(C)C(=O)N2 (single isomer, unassigned; diastereomer 2) [Example 29, 2-{8-[(2,6-difluorobenzyl)oxy]-2-methylimidazo[1,2-a]pyridin-3-yl}-4-[(4-hydroxy-4-methylcyclohexyl)amino]-5,5-dimethyl-5,7-dihydro-6H-pyrrolo[2,3-d]pyrimidin-6-one formate (Diastereomer 2)]
3 | 91 | Cc1nc2c(OCc3c(F)cccc3F)cccn2c1-c1nc(NCC(N)c2ccc(F)c(F)c2)c2c(n1)NC(=O)C2(C)C (single isomer, unassigned; ent-4) [Example 14, ent-4-{[2-Amino-2-(3,4-difluorophenyl)ethyl]amino}-2-{8-[(2,6-difluorobenzyl)oxy]-2-methylimidazo[1,2-a]pyridin-3-yl}-5,5-dimethyl-5,7-dihydro-6H-pyrrolo[2,3-d]pyrimidin-6-one]
1 | 9.8 | COCC(C)(N)CNc1nc(-c2c(C)nc3c(OCc4c(F)cccc4F)cccn23)nc2c1C(C)(C)C(=O)N2 (single isomer, unassigned; ent-4) [Example 45, ent-4-[(2-Amino-3-methoxy-2-methylpropyl)amino]-2-{8-[(2,6-difluorobenzyl)oxy]-2-methylimidazo[1,2-a]pyridin-3-yl}-5,5-dimethyl-5,7-dihydro-6H-pyrrolo[2,3-d]pyrimidin-6-one (Enantiomer A)]
1 | 120 | COCC(C)(N)CNc1nc(-c2c(C)nc3c(OCc4c(F)cccc4F)cccn23)nc2c1C(C)(C)C(=O)N2 (single isomer, unassigned; ent-4) [Example 46, ent-4-[(2-Amino-3-methoxy-2-methylpropyl)amino]-2-{8-[(2,6-difluorobenzyl)oxy]-2-methylimidazo[1,2-a]pyridin-3-yl}-5,5-dimethyl-5,7-dihydro-6H-pyrrolo[2,3-d]pyrimidin-6-one (Enantiomer B)]
0.3 | 34 | Cc1nc2c(OCc3c(F)cccc3F)cccn2c1-c1nc(N)c2c(n1)NC(=O)C2(C)C [Example 1, 4-Amino-2-{8-[(2,6-difluorobenzyl)oxy]-2-methylimidazo[1,2-a]pyridin-3-yl}-5,5-dimethyl-5,7-dihydro-6H-pyrrolo[2,3-d]pyrimidin-6-one]
5.3 | 300 | Cc1nc2c(OCc3c(F)cccc3F)cccn2c1-c1nc(I)c2c(n1)NC(=O)C2(C)C [Example 2, 2-{8-[(2,6-Difluorobenzyl)oxy]-2-methylimidazo[1,2-a]pyridin-3-yl}-4-iodo-5,5-dimethyl-5,7-dihydro-6H-pyrrolo[2,3-d]pyrimidin-6-one]
3 | 110 | Cc1nc2c(OCc3c(F)cccc3F)cccn2c1-c1nc(Cl)c2c(n1)NC(=O)C2(C)C [Example 4, 4-Chloro-2-{8-[(2,6-difluorobenzyl)oxy]-2-methylimidazo[1,2-a]pyridin-3-yl}-5,5-dimethyl-5,7-dihydro-6H-pyrrolo[2,3-d]pyrimidin-6-one]
3 | 690 | Cc1nc2c(OCc3c(F)cccc3F)cccn2c1-c1nc(O)c2c(n1)NC(=O)C2(C)C [Example 5, 2-{8-[(2,6-Difluorobenzyl)oxy]-2-methylimidazo[1,2-a]pyridin-3-yl}-4-hydroxy-5,5-dimethyl-5,7-dihydro-6H-pyrrolo[2,3-d]pyrimidin-6-one trifluoroacetate]
1 | 17 | Cc1nc2c(OCc3c(F)ccc(F)c3F)cccn2c1-c1nc(N)c2c(n1)NC(=O)C2(C)C [Example 9, 4-Amino-5,5-dimethyl-2-{2-methyl-8-[(2,3,6-trifluorobenzyl)oxy]imidazo[1,2-a]pyridin-3-yl}-5,7-dihydro-6H-pyrrolo[2,3-d]pyrimidin-6-one]
3 | 260 | Cc1nc2c(OCc3c(F)ccc(F)c3F)cccn2c1-c1nc(O)c2c(n1)NC(=O)C2(C)C [Example 11, 4-Hydroxy-5,5-dimethyl-2-{2-methyl-8-[(2,3,6-trifluorobenzyl)oxy]imidazo[1,2-a]pyridin-3-yl}-5,7-dihydro-6H-pyrrolo[2,3-d]pyrimidin-6-one]
0.2 | 3.6 | Cc1nc2c(OCc3c(F)cccc3F)cccn2c1-c1nc(NCC(C)(C)N)c2c(n1)NC(=O)C2(C)C [Example 12, 4-[(2-Amino-2-methylpropyl)amino]-2-{8-[(2,6-difluorobenzyl)oxy]-2-methylimidazo[1,2-a]pyridin-3-yl}-5,5-dimethyl-5,7-dihydro-6H-pyrrolo[2,3-d]pyrimidin-6-one]
3 | 2.5 | Cc1nc2c(OCc3c(F)cccc3F)cccn2c1-c1nc2c(c(N[C@H]3CC[C@H](O)CC3)n1)C(C)(C)C(=O)N2 [Example 15, 2-{8-[(2,6-Difluorobenzyl)oxy]-2-methylimidazo[1,2-a]pyridin-3-yl}-4-[(trans-4-hydroxycyclohexyl)amino]-5,5-dimethyl-5,7-dihydro-6H-pyrrolo[2,3-d]pyrimidin-6-one]
0.65 | 4.8 | Cc1nc2c(OCc3c(F)cccc3F)cccn2c1-c1nc(NCC(C)(C)O)c2c(n1)NC(=O)C2(C)C [Example 16, 2-{8-[(2,6-Difluorobenzyl)oxy]-2-methylimidazo[1,2-a]pyridin-3-yl}-4-[(2-hydroxy-2-methylpropyl)amino]-5,5-dimethyl-5,7-dihydro-6H-pyrrolo[2,3-d]pyrimidin-6-one]

Source: patent US9688699B2, “3-(pyrimidine-2-yl)imidazo[1,2-a]pyridines” (Bayer Pharma Aktiengesellschaft, priority 2014, dated 2017)
